The values below come from ChEMBL document CHEMBL3808279, “Sequential one-pot synthesis of bis(indolyl)glyoxylamides: Evaluation of antibacterial and anticancer activities” (Bioorg Med Chem Lett, 2016).

Structures are written as SMILES. In brackets after ≈: the same amount, converted by molar mass. Activity calls are given as the source filed them. No cut-off for these calls is given here. A value given as a limit tells only on which side of the number the result lay.

The test system of the first series is Staphylococcus aureus. Put plainly: Antibacterial activity against Staphylococcus aureus after 18 to 24 hrs by microbroth dilution method.
Settings: not given
The class given is functional.
Consider `O=C(NCCc1c[nH]c2ccccc12)C(=O)c1c[nH]c2ccc(Br)cc12`, for which the “inhibition zone (IZ)” value was determined as 15 mm.
On the same count and under the same terms, the same measure for `O=C(NCCc1c[nH]c2ccccc12)C(=O)c1cn(Cc2ccc(Cl)cc2)c2ccccc12`: 17 mm; for `O=C(NCCc1c[nH]c2ccccc12)C(=O)c1cn(Cc2ccc(Cl)cc2)c2ccc(Br)cc12`: 13 mm.

The same series, now with this note: Staphylococcus aureus.
In the case of `O=C(NCCc1c[nH]c2ccccc12)C(=O)c1c[nH]c2ccc(Br)cc12`, the minimum inhibitory concentration (MIC) is over 100 µg/mL.
Take `O=C(NCCc1c[nH]c2ccccc12)C(=O)c1cn(Cc2ccc(Cl)cc2)c2ccccc12`: the MIC is over 25 µg/mL.
In turn, `O=C(NCCc1c[nH]c2ccccc12)C(=O)c1cn(Cc2ccc(Cl)cc2)c2ccc(Br)cc12` came in with an MIC of 100 µg/mL (≈ 187 µM).

The next series concerns Escherichia coli. Description: Antibacterial activity against Escherichia coli after 18 to 24 hrs by microbroth dilution method. The class given is functional.
Settings: not given
With `O=C(NCCc1c[nH]c2ccccc12)C(=O)c1c[nH]c2ccc(Br)cc12`, the “inhibition zone (IZ)” value stood at 16 mm.
Same read-out and setting: with `O=C(NCCc1c[nH]c2ccccc12)C(=O)c1cn(Cc2ccc(Cl)cc2)c2ccccc12` the figure was 18 mm.
Still for that read-out and setting: the same measure for `O=C(NCCc1c[nH]c2ccccc12)C(=O)c1cn(Cc2ccc(Cl)cc2)c2ccc(Br)cc12`: 15 mm.

The series is the same for the next values; noted with them: Escherichia coli.
Consider `O=C(NCCc1c[nH]c2ccccc12)C(=O)c1c[nH]c2ccc(Br)cc12`, for which inhibition of growth (MIC) required 50 µg/mL (≈ 122 µM).
`O=C(NCCc1c[nH]c2ccccc12)C(=O)c1cn(Cc2ccc(Cl)cc2)c2ccccc12` showed a minimum inhibitory concentration (MIC) of 12.5 µg/mL (≈ 27.4 µM).
Still for that read-out and setting: with `O=C(NCCc1c[nH]c2ccccc12)C(=O)c1cn(Cc2ccc(Cl)cc2)c2ccc(Br)cc12` the figure was 100 µg/mL (≈ 187 µM).

Another series relates to Bacillus subtilis. Description: Bactericidal activity against Bacillus subtilis at 3 times MIC after 2 hrs by time-kill analysis. It counts as functional.
Settings: not given
`O=C(NCCc1c[nH]c2ccccc12)C(=O)c1cn(Cc2ccc(Cl)cc2)c2ccccc12` had an Activity of over 80%.

Tested on in another series: not listed separately
Description: Stability of compound at pH 7.4 up to 48 hrs by HPLC analysis. It counts as physicochemical. The settings on record: buffer, pH 7.4, 48 h.
In the case of `O=C(NCCc1c[nH]c2ccccc12)C(=O)c1cn(Cc2ccc(Cl)cc2)c2ccccc12`, the Stability result was “Stable”.

The next series has as its system Escherichia coli. Description: Bactericidal activity against Escherichia coli assessed as maximum bactericidal reduction at 3 times MIC after 3 hrs by time-kill analysis. It counts as functional, organism-based.
Settings: not given
Consider `O=C(NCCc1c[nH]c2ccccc12)C(=O)c1cn(Cc2ccc(Cl)cc2)c2ccccc12`, for which the outcome was Active.

A further series has as its system Klebsiella pneumoniae. Put plainly: Antibacterial activity against Klebsiella pneumoniae after 18 to 24 hrs by microbroth dilution method. The class given is functional.
Settings: not given
Take `O=C(NCCc1c[nH]c2ccccc12)C(=O)c1c[nH]c2ccc(Br)cc12`: the “inhibition zone (IZ)” value was 15 mm.
Still for that read-out and setting: with `O=C(NCCc1c[nH]c2ccccc12)C(=O)c1cn(Cc2ccc(Cl)cc2)c2ccccc12` the figure was 18 mm.
The same measure, in the same setting: the same measure for `O=C(NCCc1c[nH]c2ccccc12)C(=O)c1cn(Cc2ccc(Cl)cc2)c2ccc(Br)cc12`: 14 mm.

Staying with this series, now noted: Klebsiella pneumoniae.
As to `O=C(NCCc1c[nH]c2ccccc12)C(=O)c1c[nH]c2ccc(Br)cc12`, the MIC came out at 100 µg/mL (≈ 244 µM).
`O=C(NCCc1c[nH]c2ccccc12)C(=O)c1cn(Cc2ccc(Cl)cc2)c2ccccc12`: the MIC was over 12.5 µg/mL.
Same read-out and setting: the same measure for `O=C(NCCc1c[nH]c2ccccc12)C(=O)c1cn(Cc2ccc(Cl)cc2)c2ccc(Br)cc12`: over 50 µg/mL.

The next series deals with Escherichia coli. Put plainly: Bactericidal activity against Escherichia coli at 3 times MIC after 2 hrs by time-kill analysis. The class given is functional.
Settings: not given
`O=C(NCCc1c[nH]c2ccccc12)C(=O)c1cn(Cc2ccc(Cl)cc2)c2ccccc12`: the Activity is on record as 80%.

The next series relates to HeLa. Description: Cytotoxicity against human HeLa cells after 48 hrs by MTT assay.
Settings: not given
The class given is functional, cell-based.
For the compound `O=C(NCCc1c[nH]c2ccccc12)C(=O)c1c[nH]c2ccc(Br)cc12`, the IC50 is over 100 µM.
On the same count and under the same terms, with `O=C(NCCc1c[nH]c2ccccc12)C(=O)c1cn(Cc2ccc(Cl)cc2)c2ccccc12` the figure was over 100 µM; with `O=C(NCCc1c[nH]c2ccccc12)C(=O)c1cn(Cc2ccc(Cl)cc2)c2ccc(Br)cc12`, over 100 µM.

The subject of another series is Bacillus subtilis. Description: Antibacterial activity against Bacillus subtilis after 18 to 24 hrs by microbroth dilution method.
Settings: not given
The class given is functional.
On to `O=C(NCCc1c[nH]c2ccccc12)C(=O)c1c[nH]c2ccc(Br)cc12`, for which the “inhibition zone (IZ)” value stood at 14 mm.
With `O=C(NCCc1c[nH]c2ccccc12)C(=O)c1cn(Cc2ccc(Cl)cc2)c2ccccc12`, the “inhibition zone (IZ)” value is 17 mm.
Turning to `O=C(NCCc1c[nH]c2ccccc12)C(=O)c1cn(Cc2ccc(Cl)cc2)c2ccc(Br)cc12`, the “inhibition zone (IZ)” value was found to be 14 mm.

The same series, now with this note: Bacillus subtilis.
`O=C(NCCc1c[nH]c2ccccc12)C(=O)c1c[nH]c2ccc(Br)cc12` registered a minimum inhibitory concentration (MIC) of 100 µg/mL (≈ 244 µM).
Regarding `O=C(NCCc1c[nH]c2ccccc12)C(=O)c1cn(Cc2ccc(Cl)cc2)c2ccccc12`, the minimal inhibitory concentration (MIC) was over 25 µg/mL.
`O=C(NCCc1c[nH]c2ccccc12)C(=O)c1cn(Cc2ccc(Cl)cc2)c2ccc(Br)cc12` showed a minimum inhibitory concentration (MIC) of 100 µg/mL (≈ 187 µM).

In a further series the test system is Staphylococcus aureus. Description: Bactericidal activity against Staphylococcus aureus at 3 times MIC after 2 hrs by time-kill analysis. It counts as functional.
Settings: not given
In turn, `O=C(NCCc1c[nH]c2ccccc12)C(=O)c1cn(Cc2ccc(Cl)cc2)c2ccccc12` yielded an Activity of over 65%.

Another series concerns Pseudomonas putida. Put plainly: Bactericidal activity against Pseudomonas putida assessed as maximum bactericidal reduction at 3 times MIC after 3 hrs by time-kill analysis. The class given is functional, organism-based.
Settings: not given
Take `O=C(NCCc1c[nH]c2ccccc12)C(=O)c1cn(Cc2ccc(Cl)cc2)c2ccccc12`: the result was Active.

Tested on in a further series: not listed separately
Put plainly: Cytotoxicity against human HEK293T cells after 48 hrs by MTT assay. It counts as cell-based. The settings on record: HEK-293T.
As to `O=C(NCCc1c[nH]c2ccccc12)C(=O)c1c[nH]c2ccc(Br)cc12`, the IC50 is over 100 µM.
Same read-out and setting: the same measure for `O=C(NCCc1c[nH]c2ccccc12)C(=O)c1cn(Cc2ccc(Cl)cc2)c2ccccc12`: over 100 µM; for `O=C(NCCc1c[nH]c2ccccc12)C(=O)c1cn(Cc2ccc(Cl)cc2)c2ccc(Br)cc12`: over 100 µM.

Tested on in the next series: not listed separately
Put plainly: Cytotoxicity against human BxPC3 cells after 48 hrs by MTT assay. It counts as functional, cell-based. The settings on record: BXPC-3, 48 h.
Compound `O=C(NCCc1c[nH]c2ccccc12)C(=O)c1c[nH]c2ccc(Br)cc12` displayed a concentration for half-maximal inhibition (IC50) of over 100 µM.
The compound `O=C(NCCc1c[nH]c2ccccc12)C(=O)c1cn(Cc2ccc(Cl)cc2)c2ccccc12` displayed an IC50 of over 100 µM.
For `O=C(NCCc1c[nH]c2ccccc12)C(=O)c1cn(Cc2ccc(Cl)cc2)c2ccc(Br)cc12`, the IC50 was over 100 µM.

Tested on in the next series: not listed separately
Description: Cytotoxicity against human PC3 cells after 48 hrs by MTT assay. The settings on record: PC-3, 48 h. It counts as functional, cell-based.
Consider `O=C(NCCc1c[nH]c2ccccc12)C(=O)c1c[nH]c2ccc(Br)cc12`, for which the IC50 was over 100 µM.
The same measure, in the same setting: with `O=C(NCCc1c[nH]c2ccccc12)C(=O)c1cn(Cc2ccc(Cl)cc2)c2ccccc12` the figure was over 100 µM; with `O=C(NCCc1c[nH]c2ccccc12)C(=O)c1cn(Cc2ccc(Cl)cc2)c2ccc(Br)cc12`, over 100 µM.

Tested on in another series: not listed separately
Description: Cytotoxicity against human C4-2 cells after 48 hrs by MTT assay. The settings on record: LNCaP C4-2, 48 h. The class given is functional, cell-based.
In turn, `O=C(NCCc1c[nH]c2ccccc12)C(=O)c1c[nH]c2ccc(Br)cc12` yielded a 50% inhibitory concentration (IC50) of over 100 µM.
In turn, `O=C(NCCc1c[nH]c2ccccc12)C(=O)c1cn(Cc2ccc(Cl)cc2)c2ccccc12` came in with an IC50 of over 100 µM.
Same read-out and setting: with `O=C(NCCc1c[nH]c2ccccc12)C(=O)c1cn(Cc2ccc(Cl)cc2)c2ccc(Br)cc12` the figure was over 100 µM.

Tested on in the next series: not listed separately
Put plainly: Stability of compound at pH 4.5 up to 48 hrs by HPLC analysis. The class given is physicochemical. Particulars: buffer, pH 4.5, 48 h.
As for `O=C(NCCc1c[nH]c2ccccc12)C(=O)c1cn(Cc2ccc(Cl)cc2)c2ccccc12`, the Stability result is “Stable”.

The next series deals with Pseudomonas putida. Put plainly: Antibacterial activity against Pseudomonas putida after 18 to 24 hrs by microbroth dilution method. It counts as functional.
Settings: not given
As for `O=C(NCCc1c[nH]c2ccccc12)C(=O)c1c[nH]c2ccc(Br)cc12`, the “inhibition zone (IZ)” value stood at 14 mm.
The same measure, in the same setting: with `O=C(NCCc1c[nH]c2ccccc12)C(=O)c1cn(Cc2ccc(Cl)cc2)c2ccccc12` the figure was 18 mm.
On the same count and under the same terms, with `O=C(NCCc1c[nH]c2ccccc12)C(=O)c1cn(Cc2ccc(Cl)cc2)c2ccc(Br)cc12` the figure was 14 mm.

Still in this series, the particulars now being: Pseudomonas putida.
On to `O=C(NCCc1c[nH]c2ccccc12)C(=O)c1c[nH]c2ccc(Br)cc12`, for which the lowest concentration to inhibit growth (MIC) was 100 µg/mL (≈ 244 µM).
On the same count and under the same terms, with `O=C(NCCc1c[nH]c2ccccc12)C(=O)c1cn(Cc2ccc(Cl)cc2)c2ccccc12` the figure was 12.5 µg/mL (≈ 27.4 µM); with `O=C(NCCc1c[nH]c2ccccc12)C(=O)c1cn(Cc2ccc(Cl)cc2)c2ccc(Br)cc12`, over 100 µg/mL.

A further series deals with MDA-MB-231. Description: Cytotoxicity against human MDA-MB-231 cells after 48 hrs by MTT assay. The class given is functional, cell-based. The settings on record: MDA-MB-231, 48 h.
On to `O=C(NCCc1c[nH]c2ccccc12)C(=O)c1c[nH]c2ccc(Br)cc12`, for which the IC50 was over 100 µM.
The same measure, in the same setting: with `O=C(NCCc1c[nH]c2ccccc12)C(=O)c1cn(Cc2ccc(Cl)cc2)c2ccccc12` the figure was over 100 µM; with `O=C(NCCc1c[nH]c2ccccc12)C(=O)c1cn(Cc2ccc(Cl)cc2)c2ccc(Br)cc12`, over 100 µM.

The next series concerns Pseudomonas putida. Put plainly: Bactericidal activity against Pseudomonas putida at 3 times MIC after 2 hrs by time-kill analysis. The class given is functional.
Settings: not given
On to `O=C(NCCc1c[nH]c2ccccc12)C(=O)c1cn(Cc2ccc(Cl)cc2)c2ccccc12`, for which the Activity amounted to 80%.
